Legend:
[1] = Flash point, small scale closed cup (ASTM D-3278-96 e-1); type: physicochemical; settings: no flash point = non-flammable
[2] = Log KOW octanol/water partition coefficient by HPLC (OECD 117); type: physicochemical; settings: HPLC method
Protocol: Values of Log KOW (octanol/water partition coefficients) were determined by HPLC using the method described in Organization for Economic Cooperation and Development (OECD) Test Method 117, “Partition Coefficient (n-octanol/water), HPLC Method.”

[3] = Density (DDM 2911 plus Automatic Density Meter); type: physicochemical
Protocol: Density was measured using DDM 2911 plus Automatic Density Meter. Before measurement, the fluid was briefly degassed in the syringe by stoppering the syringe tip and pulling on the plunger to release bubbles.

[4] = type: physicochemical
Protocol: The boiling points reported in Table 1 were determined using the procedures outlined in ASTM E 1719-97 “Standard Test Method for Vapor Pressure of Liquids by Ebulliometry.” First, vapor pressure was measured, and then the boiling point was calculated as described in section 10 of ASTM method […]-97.

[5] = Dielectric constant (ASTM D150-11, broadband dielectric spectrometer); type: physicochemical
Protocol: Dielectric constants were measured using an Alpha-A High Temperature Broadband Dielectric Spectrometer (Novocontrol Technologies, Montabaur, Germany) in accordance with ASTM D150-11, “Standard Test Methods for AC Loss Characteristics and Permittivity (Dielectric Constant) of Solid Electrical Insulation.” The parallel plate electrode configuration was selected for this measurement. The sample cell of parallel plates, an Agilent 16452A liquid test fixture consisting of 38 mm diameter parallel plates (Keysight Technologies, Santa Rosa, CA, US) was interfaced to the Alpha-A mainframe while utilizing the ZG2 Dielectric/Impedance General Purpose Interface available from Novocontrol Technologies. Each sample was prepared between parallel plate electrodes with a spacing, d, (typically, d=1 mm) and the complex permittivity (dielectric constant and loss) were evaluated from the phase sensitive measurement of the electrodes voltage difference (Vs) and current (Is). Frequency domain measurements were carried out at discrete frequencies from 0.00001 Hz to 1 MHz. Impedances from 10 milliohms up to 1×10^14 ohms were measured up to a maximum of 4.2 volts AC. For this experiment, however, a fixed AC voltage of 1.0 volts was used. The DC conductivity (the inverse of volume resistivity) can also be extracted from an optimized broadband dielectric relaxation fit function that contains at least one term of the low frequency Havrrilak Negami dielectric relaxation function and one separate frequency dependent conductivity term.

[6] = Liquid dielectric breakdown strength (ASTM D877-87); type: physicochemical; settings: 2.5 mm gap, 60 Hz
Protocol: The liquid dielectric breakdown strength measurements were performed in accordance with ASTM […]-87(1995), “Standard Test Method for Dielectric Breakdown Voltage of Insulating Liquids.” Disk electrodes 25mm in diameter, with 2.5 mm (0.10'') spacing between the electrodes, were utilized with a Phenix Technologies Model LD 60 that is specifically designed for testing in the 7-60 kV, 60 Hz (higher voltage) breakdown range. For this experiment, a frequency of 60 Hz and a ramp rate of 500 volts per second were utilized, as is typical.

[7] = Kinematic viscosity (ASTM D445-94e1); type: physicochemical
Protocol: Kinematic viscosity was determined in accordance with ASTM D445-94e1 “Standard Test Method for Kinematic Viscosity of Transparent and Opaque Liquids (the Calculation of Dynamic Viscosity)”, except the bath temperature was controlled to ±0.1° C., using a ViscoSystem AVS 350 viscosity timer (Schott Instruments GmbH, Hattenbergstraße 10 55122 Mainz Germany) and Hagenbach-corrected 545-03, 545-13 or 545-20 Ubbelohde viscometers (Cannon Instruments Company, Box 812, State College, PA). For temperatures below 0° C., a Lawler temperature control bath was used.

[8] = type: physicochemical; settings: 200±2° C., 31.5 days, sealed borosilicate tube
Protocol: To evaluate thermal stability, a flame-sealed borosilicate glass tube (50 mm outer diameter, 0.4 mm wall thickness) containing Example 1 [1.0 g, isomeric mixture of 4-Cl(C6H4)O(C9F17)] was completely submerged in a temperature-controlled oil bath at 200±2° C. for 31.5 days.

Compound	Flash Point [1]	Log Kow [2]	Density at 25° C. [3]	Boiling Point [4]	Dielectric Constant @ 1 kHz [5]	Dielectric strength [6]	Viscosity at 0° C. [7]	Boiling point above non-chlorinated analog [4]	4-Cl(C6H4)O(C9F17) isomers by GC-FID, before and after heating [8]
F/C(=C(/C(F)(F)F)C(F)(Oc1ccccc1)C(F)(F)C(F)(F)F)C(F)(C(F)(F)F)C(F)(F)F (centres unmarked) [CE1, (E)-((1,1,1,2,2,3,5,6,7,7,7-Undecafluoro-4,6-bis(trifluoromethyl)hept-4-en-3-yl)oxy)benzene]	None	>6.4	1.62 g/mL	201 °C	4.42	38.1 kV	8.7 cSt	–	–
FC(F)(F)C(=C(Oc1ccccc1)C(F)(F)C(F)(F)F)C(F)(F)F [CE2]	None	5.5	1.51 g/mL	169 °C	5.16	31.1 kV	3.6 cSt	–	–
F/C(=C(/C(F)(F)F)C(F)(Oc1ccc(F)cc1)C(F)(F)C(F)(F)F)C(F)(C(F)(F)F)C(F)(F)F (centres unmarked) [CE3, (E)-1-fluoro-4-((1,1,1,2,2,3,5,6,7,7,7-undecafluoro-4,6-bis(trifluoromethyl)hept-4-en-3-yl)oxy)benzene]	None	>6.4	1.68 g/mL	206 °C	2.63	38.1 kV	11.8 cSt	5 °C	–
F/C(=C(/C(F)(F)F)C(F)(Oc1ccc(Cl)cc1)C(F)(F)C(F)(F)F)C(F)(C(F)(F)F)C(F)(F)F (centres unmarked) [Ex. 1, (E)-1-chloro-4-((1,1,1,2,2,3,5,6,7,7,7-undecafluoro-4,6-bis(trifluoromethyl)hept-4-en-3-yl)oxy)benzene]	None	>6.4	1.65 g/mL	223 °C	2.57	46.6 kV	24.1 cSt	at least 22 °C	99.9±0.1%
FC(F)(F)C(=C(Oc1ccc(Cl)cc1)C(F)(F)C(F)(F)F)C(F)(F)F [Ex. 2, 1-chloro-4-((1,1,1,4,4,5,5,5-octafluoro-2-(trifluoromethyl)pent-2-en-3-yl)oxy)benzene]	None	–	1.58 g/mL	193 °C	2.76	50.7 kV	8.4 cSt	at least 22 °C	–
F/C(=C(/C(F)(F)F)C(F)(Oc1cc(Cl)cc(Cl)c1)C(F)(F)C(F)(F)F)C(F)(C(F)(F)F)C(F)(F)F (centres unmarked) [Ex. 3, (E)-1,3-dichloro-5-((1,1,1,2,2,3,5,6,7,7,7-undecafluoro-4,6-bis(trifluoromethyl)hept-4-en-3-yl)oxy)benzene]	None	–	1.70 g/mL	237 °C	2.54	–	40.8 cSt	35 °C	–

Source: patent US20230339834A1, “CHLORINATED FLUOROAROMATICS AND METHODS OF USING SAME” (3M INNOVATIVE PROPERTIES COMPANY, priority 2019, published 2023)
